Drawing on PubChem BioAssay (NCI), this text covers TGI and GI50 for 14 compounds.

Experiment in all cases: NCI tumour cell line growth inhibition, 48 h
In assay [1] the test system is SK-MEL-28 melanoma.
The test system of assay [2] is UACC-257 melanoma.
The test system of assay [3] is M19-MEL melanoma.
Assay [4] has as its system LOX IMVI melanoma.
Assay [5] concerns SNB-75 CNS.
Assay [6] has as its system A549 NSCLC.
Assay [7] deals with DMS 114 small cell lung.
Assay [8] deals with NCI-H460 lung.
Assay [9] relates to SF-539 CNS.
Assay [10] concerns MDA-MB-231 breast.

“And” between values parts separate entries of the source, which are not always exact repeats. Equal values may be shown once.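 Method: 48-hour compound exposure of cells in 96-well plates, five concentrations, linear interpolation of endpoints. GI50: concentration for 50% inhibition of growth. At the TGI there is no net growth.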

For `Cc1cc(NS(=O)(=O)c2ccc(Nc3c4ccccc4nc4c(C(=O)Nc5ccc(S(=O)(=O)N=C(N)N)cc5)ccc(Cl)c34)cc2)no1`, the TGI in [1] was > 100 µM; in assay [2], > 100 µM; in assay [3], > 100 µM; in [4] it was 36.8 µM; in assay [5] it was 73.2 µM; in assay [6], > 100 µM. For the same compound, the values for the TGI in [7], in assay [8] and in assay [9] were 68.9 µM, > 100 µM and 41.7 µM, respectively.

For `CN1C(=O)C(=CN(C)c2ccccc2)C(=O)N(C)C1=O`, the TGI in assay [1], in assay [2], in assay [3], in [4], in assay [5] and in [6] was > 100 µM throughout. Also, the TGI in assay [7], in [8] and in assay [9] was > 100 µM throughout.

Regarding `CCCCCCCCCCCCCCNCC(OCC)OCC`, the TGI in assay [1] amounted to 32.5 µM; in assay [2], 31.2 µM; in assay [3], 30.5 µM; in assay [4], 32.5 µM; in assay [5], 23 µM; in assay [6] it was 37.6 µM. In addition, the TGI in assay [7] was determined as 25.7 µM; in [8], 34.3 µM; in assay [9], 29.7 µM.

As for `O=C1CCC2(c3ccccc3)Nc3ccc(Cl)cc3N12` (stereo not given), the TGI in assay [1], in assay [2], in assay [3], in assay [4], in [5] and in assay [6] was > 100 µM each time. Further, the TGI in assay [7], in assay [8] and in [9] was > 100 µM throughout.

Turning to `O=C1c2c(c3c4ccccc4[nH]c3c3[nH]c4ccccc4c23)C(=O)N1Cc1ccccc1`, the TGI in assay [1] is 11.7 µM; in assay [2], 13.3 µM; in [3], 12.9 µM; in [4], 8.31 µM; in assay [5], 8.01 µM; in [6] it was 13.5 µM. Further, the results for the TGI in [7], in assay [8] and in [9] were 8.92 µM, 13.5 µM and 6.26 µM, respectively.

On to `CC12CC(Sc3ccccc3N1)c1ccccc1O2` (stereo not given), for which the TGI came to 30.4 µM in [1]; 27.8 µM in assay [2]; 30.9 µM in assay [3]; 27 µM in assay [4]; 53.3 µM in assay [5]; 41.9 µM in assay [6]. Also, the TGI in [7] turned out to be 29 µM; in assay [8], 33.2 µM; in [9], 32.5 µM.

For `C[C@@](O)(/C=C/[C@H]1CC=CC(=O)O1)[C@@H](C[C@@H](O)\C=C/C=C\C=C\CO)OP(=O)(O)O`, the GI50 in assay [1] is 8.69 µM; in assay [2], 7.2 µM; in assay [4], 4.32 µM; in assay [5], 315 µM and 39.4 µM; in [6], 13.1 µM; in assay [8], 14.2 µM. The GI50 in [9] was 5.28 µM. The TGI in [1] was 38.8 µM and 25.3 µM; in [2], 17.6 µM and 14.6 µM; in [10] it was 138 µM; in [3] it was 25.6 µM; in [4] it was 10.1 µM and 6.8 µM; in assay [6] it was 49.6 µM and 57 µM. The TGI is 82.6 µM in assay [7]; 63.6 µM and 78.5 µM in assay [8]; 11.5 µM and 23 µM in assay [9].

Consider `Cc1ccc(S(=O)(=O)SCc2ccccc2)cc1`, for which the TGI in assay [1] was > 100 µM; in assay [2] it was > 94.2 µM; in assay [3] it was > 77.4 µM; in [4], 37.2 µM; in assay [5], > 84.2 µM; in assay [6], > 100 µM. Also, the TGI in [7] is 47.8 µM; in assay [8] it was > 69.5 µM; in assay [9] it was 45.7 µM.

With `Cc1cc(NS(=O)(=O)c2ccc(NC(=O)COC(=O)c3cccc4c(=O)c5ccccc5[nH]c34)cc2)no1`, the TGI in assay [1], in assay [2], in assay [3], in [4], in [5] and in assay [6] was > 100 µM in each case. Also, the TGI in assay [7], in [8] and in [9] was > 100 µM throughout.

Regarding `COc1cc2c(cc1OC)[C@@H]([C@H](O)c1ccccc1)NCC2`, the TGI in assay [1], in assay [2], in assay [3], in [4], in assay [5] and in assay [6] was > 100 µM in each case. The TGI in assay [7], in assay [8] and in assay [9] was > 100 µM each time.

In the case of `CCN(CC)CCC(=O)/C=C/c1ccc(C)cc1`, the TGI in [1] was found to be 28.1 µM; in [2] it was 30.6 µM; in assay [3], 25.4 µM; in assay [4] it was 14.6 µM; in assay [5], 30.9 µM; in assay [6] it was 34.5 µM. The TGI in assay [7] is 24.4 µM; in assay [8] it was 38.3 µM; in [9], 19.1 µM.

Take `CCOP(=O)(CC(=O)C1=C(O)C(CCCCNC(=O)OC(C)(C)C)N(Cc2ccccc2)C1=O)OCC` (stereo not given): the TGI in assay [1], in [2], in [3], in [4], in [5] and in assay [6] was > 100 µM throughout. Moreover, the TGI in assay [7], in assay [8] and in assay [9] was > 100 µM in each case.

On to `CC(C)(C)N=CN(C=C(c1ccccc1)c1ccccc1)C1CCCCC1`, for which the TGI in assay [1] was > 100 µM; in assay [2], > 100 µM; in assay [3], > 100 µM; in [4], 92.3 µM; in assay [5], > 100 µM; in [6], > 100 µM. The TGI in [7] is 55.3 µM; in [8], > 100 µM; in assay [9], > 100 µM.

Take `O=C1N[C@H]2[C@H](O)[C@H](O)[C@@H](O)[C@H](O)[C@@H]2c2cc3c(c(O)c21)OCO3`: the GI50 is 0.308 µM and 0.382 µM in assay [1]; 0.314 µM and 0.339 µM in assay [2]; 0.276 µM and 0.463 µM in [3]; 0.147 µM and 0.196 µM in assay [4]; 0.257 µM and 1.14 µM in [5]; 0.407 µM and 3.51 µM in assay [6]. The GI50 is 0.241 µM and 0.604 µM in assay [7]; 0.234 µM and 0.084 µM in assay [8]. For the same compound, the TGI in assay [2] was 2.4 µM and 0.334 µM; in assay [10] it was 0.091 µM; in [8], 0.652 µM and 0.448 µM.
